Measurements taken from US20260014143A1, “Prostaglandin E synthase 3 (PTGES3) Inhibiting Compounds” (The Regents of the University of California, priority 2022, published 2026).
pEC50: −log10 of the molar value. “Also recorded” adds a separate entry of the source.

Assays:
[1] = system: Recombinant CysLite PTGES3; assay: Differential scanning fluorimetry (thermal shift) of fully labeled CysLite PTGES3; assay type: binding; conditions: cyslite PTGES3 fully labeled with compound
Protocol: Recombinant […] PTGES3 at a concentration of 8 μM in 50 mM HEPES pH 7.5, 150 mM NaCl were incubated with compounds or DMSO for unlabeled comparisons, at ambient temperature until complete labeling was observed by intact protein mass spectrometry. 7K Zeba Desalting columns (ThermoFisher) were used to remove excess compound. The Zeba 7K columns were first preequilibrated with 50 mM HEPES (pH 7.5), 150 mM NaCl. Sypro Orange (500x, DMSO) was added to the purified protein-small molecule conjugates to a final concentration of 5x Sypro Orange. These DSF assays were performed in triplicate in white 96-well plates. The plate was sealed with optically clear PCR sealing film (USA Scientific). The thermal shift assay was performed on a Bio-Rad CFX qPCR instrument. The temperature was increased from 23° C. to 95° C. at a rate of 0.5° C./s. After each temperature step, fluorescence was monitored with an excitation of 492 nm and emission of 610 nm. Raw fluorescence values were normalized between 0 and 1 and fit to a Boltzman equation using GraphPad Prism with the maximum value of the fit constrained to 1.

[2] = system: cysteine 76 of cyslite PTGES3; assay: Labeling of cysteine 76 of cyslite PTGES3 at 100 uM compound; assay type: binding
Protocol: (§1) Compounds were tested at 100 uM for the ability to label cysteine 76 of cyslite PTGES3. In some cases labeling was not detected. Cyslite PTGES3 was then fully labeled with the compounds and the thermal shift values of the fully labeled protein was determined with stabilization values indicated below. […] Finally, select compounds were tested to determine if they inhibited cell growth in AR+LNCaP cells.

AR+ LNCaP cells = assay: Cell growth of AR+ LNCaP cells; assay type: cell-based
Protocol: (§2) Normalized to DMSO and analyzed by IncuCyte system (n=3 as biological replicates; Mean±SEM).
as §1
LNCaP cell lines were grown in the RPMI 1640 medium (Gibco) supplemented with 10% fetal bovine serum (FBS; Gibco). Cells were grown in a humidified 5% CO2 incubator at 37° C.

[3] = Parallel artificial membrane permeability assay (PAMPA); assay type: in vitro ADME
AR-independent PC3 cells = assay: Cell growth of AR-independent PC3 cells; assay type: cell-based
Protocol: as §2
Fold change of cell count normalized over day 0 was analyzed by IncuCyte system (n=3 as biological replicates; Mean SEM). Unpaired two-tailed t-test was used to determine statistical significance (ns=no significant difference; *** P<0.001).

[4] = system: AR protein levels, LNCaP cells; assay: AR protein levels in LNCaP cells by western blotting; assay type: cell-based; conditions: 100 μM, 48 h, nuclear AR, western blot
Protocol: Nuclear AR and TBP levels were detected by western blotting. Each western blot experiment was performed twice to determine reproducibility.

[5] = system: AR target genes, LNCaP cells; assay: AR target gene mRNA levels in LNCaP cells by real-time PCR; assay type: cell-based; conditions: 100 μM, 48 h, mRNA over 18s rRNA
Protocol: RNA was collected, indicated genes mRNA levels over 18s rRNA were measured by real-time PCR (n=3 as biological replicates; Mean±SEM).

[6] = molecular target: T1, Recombinant CysLite PTGES3 (cysteine 76) (Homo sapiens, UniProt Q15185); assay: Dose response assay: labeling of recombinant CysLite PTGES3 by intact protein mass spectrometry; assay type: binding; conditions: 100 uM BME, 1 μM protein, 1 h ambient temperature; read-out: EC50 with 100 uM BME competitor (half maximal labeling of cyslite PTGES3)
T1 sequence (Q15185 1-160): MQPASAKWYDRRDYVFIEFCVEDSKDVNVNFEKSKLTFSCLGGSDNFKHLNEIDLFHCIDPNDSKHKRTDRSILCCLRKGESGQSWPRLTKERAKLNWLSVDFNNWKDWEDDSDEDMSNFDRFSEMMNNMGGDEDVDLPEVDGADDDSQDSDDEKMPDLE
Protocol: Recombinant CysLite PTGES3 (1 μM, 50 mM Tris-HCl, pH 8.0, 150 mM NaCl and 100 μM βME) were incubated for 1 h at ambient temperature with lead fragments (4% DMSO) in a 7-, 8- or 9-point threefold serial dilution series in duplicate. Reactions were quenched by the addition of formic acid to a final concentration of 0.4%. Labeling was determined by intact protein mass spectrometry.

[7] = system: Recombinant CysLite PTGES3; assay: BME competition assay: labeling of CysLite PTGES3 at high BME competitor; assay type: binding; conditions: 200 uM compound
Protocol: Recombinant CysLite PTGES3 (1 μM, 50 mM Tris-HCl, pH 8.0, 150 mM NaCl) were incubated with 200 μM fragment (2% DMSO) and 500 μM or 1 mM BME at ambient temperature for 8 h. Reactions were quenched by the addition of formic acid to a final concentration of 0.4%. Labeling was determined by intact protein mass spectrometry.

PTGES3-AR interaction = assay: Far western blot of AR-PTGES3 interaction; assay type: biochemical; conditions: CysLite PTGES3 pre-modified with compound
Protocol: Flag-AR was loaded on a gel, transferred to membrane, and renatured. The membranes were incubated with recombinant CysLite PTGES3 protein or recombinant CysLite PTGES3 protein labeled with 1. The interaction was detected with PTGES3 antibody. […] Each blot experiment was performed twice to determine reproducibility.

[8] = system: PTGES3 enhanced AR/ARE binding; assay: AR/ARE gel shift (EMSA) assay; assay type: biochemical; conditions: DHT+ buffer, free ARE DNA detected by SYBR gold
Protocol: The reactions were then loaded on a DNA retardation gel. ARE DNA bands were detected by SYBR gold. […] Experiment was performed twice to determine reproducibility.
Electrophoretic mobility shift assays (EMSA) were performed using recombinant AR protein (EMD Millipore) and 3×ARE dsDNA from the ARR3TK plasmid. Protein-DNA complexes were allowed to incubate in room temperature for 30 min in loading buffer (20 mM HEPES, 100 mM KCl, 2 ng/ml poly(dI-dC), 10% glycerol, and 20 nM DHT), followed by electrophoresis on 6% DNA Retardation Gels in TBE buffer (PH 8.0). Visualization of protein-DNA complexes was performed with SYBR Gold DNA staining dye (Invitrogen).

| SMILES | Thermal Shift (Cyslite PTGES3) ΔTm [1] | 4 h labeling (100 uM) [2] | 24 h labeling (100 uM) [2] [%] | further results |
| --- | --- | --- | --- | --- |
| C=CS(=O)(=O)N[C@@H]1CN(C(=O)c2ccc(S(N)(=O)=O)c(Cl)c2)C[C@H]1c1ccccc1 [Compound 10] | ΔTm + 3.3 °C | Not detected | 27.44 | – |
| C=CS(=O)(=O)N1CCN(C(=O)[C@@H]2CN(C(=O)c3ccc(S(N)(=O)=O)c(F)c3)C[C@H]2c2ccccc2)CC1 [Compound 12] | No stabilization | 6.27% | 36.65 | – |
| C=CS(=O)(=O)N[C@@H]1CN(C(=O)c2cc(F)cc(Cl)c2)C[C@H]1c1ccccc1 [Compound 8] | – | Not detected | 14.74 | – |
| C=CS(=O)(=O)NC1CN(C(=O)[C@@H]2CN(C(=O)c3ccc(S(N)(=O)=O)c(F)c3)C[C@H]2c2ccccc2)C1 [Compound 14] | No stabilization | 7.18% | 48.46 | Cell activity (inhibited cell growth in AR+ LNCaP cells) (AR+ LNCaP cells): No |
| C=CS(=O)(=O)N[C@@H]1CN(C(=O)c2ccc(S(N)(=O)=O)c(F)c2)C[C@H]1c1ccccc1 [Compound 9] | ΔTm + 3.3 °C | 12.38% | 51.4 | Cell activity (inhibited cell growth in AR+ LNCaP cells) (AR+ LNCaP cells): Yes |
| C=CS(=O)(=O)N[C@@H]1CN(C(=O)c2ccc(S(N)(=O)=O)cc2)C[C@H]1c1ccccc1 [Compound 6] | ΔTm + 3.0 °C | 9.61% | 44.20 | Cell activity (inhibited cell growth in AR+ LNCaP cells) (AR+ LNCaP cells): Yes |
| CN(C)CCSSCCNC(=O)[C@@H]1CN(C(=O)c2cc(F)c(O)c(Cl)c2)C[C@H]1c1ccccc1 [Compound 994364] | increases the thermal melt temperature | – | – | – |
| C=CS(=O)(=O)N[C@@H]1CN(C(=O)c2cc(F)c(O)c(Cl)c2)C[C@H]1c1ccccc1 [Compound 3] | ΔTm + 3.3 °C | 5.27% | 28.15 | – |
| C=CS(=O)(=O)N[C@@H]1CN(C(=O)c2cccc(S(N)(=O)=O)c2)C[C@H]1c1ccccc1 [Compound 11] | ΔTm + 0.4 °C | 17.84% | 72.62 | Cell activity (inhibited cell growth in AR+ LNCaP cells) (AR+ LNCaP cells): Yes |
| C=CS(=O)(=O)N[C@@H]1CN(C(=O)c2ccc(S(=O)(=O)NC)cc2)C[C@H]1c1ccccc1 [Compound 7] | ΔTm + 2.1 C. ° C. | 7.21% | 36.40 | – |
| C=CS(=O)(=O)N[C@@H]1CN(C(=O)c2ccc(O)cc2)C[C@H]1c1ccccc1 [Compound 5] | – | 4.71% | 35.51 | – |
| C=CS(=O)(=O)NCCNC(=O)[C@@H]1CN(C(=O)c2ccc(S(N)(=O)=O)c(F)c2)C[C@H]1c1ccccc1 [Compound 13] | No stabilization | Not detected | 13.63 | – |
| COC(=O)[C@@H]1CN(C(=O)c2cc(F)c(O)c(Cl)c2)C[C@H]1c1ccccc1 (racemic) [Compound 2] | – | – | – | PAMPA assay [3]: Permeable; AR + cell line activity (growth of AR-driven LNCaP cells) (AR+ LNCaP cells): significantly reduced and inhibit cell proliferation in AR+ and Yes; Growth of AR-independent PC3 (AR−) cells (AR-independent PC3 cells): not AR-independent PC3 cells; also recorded: not AR− negative cell lines; AR protein levels [4]: significantly reduced; Expression of AR target genes [5]: significantly reduced |
| CN(C)CCSSCCNC(=O)[C@@H]1CN(C(=O)c2cc(F)c(O)c(Cl)c2)C[C@H]1c1ccccc1 (racemic) [Compound 1] | confirmed by DSF to stabilize CysLite PTGES3 | – | – | pEC50 [6]: 4.15; % Labeling in presence of 500 uM BME competitor ([7]; 500 uM BME): 79.03%; % Labeling in presence of 1 mM BME competitor ([7]; 1 mM BME): 76.67%; Thermal Shift (Cyslite PTGES3) ΔTm ([1]; listed as compound 1): 1.6 °C; PTGES3-AR interaction (far western blot) (PTGES3-AR interaction): ablated in vitro PTGES3-AR interaction; also recorded: disrupted the PTGS3-AR interaction; PTGES3 enhanced AR/ARE binding (gel shift) [8]: inhibited PTGES3 enhanced AR/ARE binding; also recorded: increases the free ARE levels |
| C=CS(=O)(=O)N[C@@H]1CN(C(=O)c2ccccc2)C[C@H]1c1ccccc1 [Compound 4] | ΔTm + 1.9 °C | 4.01% | 20.75 | – |
